Measured values taken from publication PMC12741935 (Alzheimer's & Dementia, 2025).

What was measured:
[1] = test system: 14 DIV hippocampal neurons; assay: oAβ-induced dendrite degeneration (MAP2 dendrite length, number, complexity) in cultured hippocampal neurons; format: cell-based, mouse
Method: (§1) For in vitro study, all animal procedures were conducted in accordance with the National Institutes of Health Guide for the Care and Use of Laboratory Animals using protocols approved by the institutional animal care and use committee at Stanford University. Timed pregnant C57BL/6 mice (Strain code: 027) were purchased from Charles River Laboratories and delivered on embryonic day 15 (E15), after which E16 embryos were used for primary hippocampal cultures. Primary embryonic mouse hippocampal neuron cultures were plated on poly‐D‐lysine‐coated (10 µg/mL) glass cover slips at 40,000 to 50,000 cells per well in 12‐well plates (Corning Life Sciences). Cells were seeded in plating medium DMEM/F12 supplemented with 10% fetal bovine serum and 1 × penicillin/streptomycin (PS) for 2 hours. Medium was then changed to B‐27 Plus Neuronal Culture System (Invitrogen) supplemented with PS, and 2 mM glutamine.
(§2) Immunofluorescence was performed as described previously.[24] Briefly, cultured hippocampal neurons were fixed in 4% formaldehyde for 20 minutes, permeabilized for 6 minutes in 80% ice‐cold methanol, and incubated with primary antibodies at 4°C overnight. Primary antibodies used were rabbit polyclonal MAP2 antibody for labeling dendrites (1:1000, #8707, Cell Signaling) and mouse monoclonal drebrin antibody for labeling dendritic spines (1:300; Cat#ADI‐NBA‐110, Enzo). Secondary antibodies consisted of donkey antirabbit or antimouse conjugated with either FITC or Cy3 (1:400; Jackson ImmunoResearch Laboratories, Inc.).
(§3) The cultured hippocampal neurons were imaged using an oil‐based 63x objective on a Leica Stellaris 5 confocal microscope. The cell nucleus was stained with DAPI and imaged at a wavelength of 405 nm (blue channel), the dendrites stained by MAP2 were imaged at 488 nm wavelength (green channel), and the drebrin‐stained spines were imaged at a wavelength of 561 nm (red channel). Z‐stack images of neurons were acquired at a 1024 × 1024 resolution, a zoom factor of 1.0, and a z‐step size of 0.5 µm. The number of steps for every z‐stack picture of a neuron were determined by the size of the neuron in the z‐plane, to ensure that the entirety of a neuron is captured in the picture. The areas to be imaged were selected systematically, starting from the top‐left region to proceeding to the bottom‐right region of a coverslip. For imaging, preference was given to field of views containing isolated neurons versus clustered neurons.
(§4) For quantification of drebrin‐positive spines in vitro, the images were analyzed using Imaris 9.3 software. Each image consisted of one major neuron and the “filaments” option in Imaris was applied to manually trace along the dendrites of every neuron, by placing starting and seed points at the beginning and along the length of the dendrites, respectively. The largest dendrite diameter (i.e., Starting Point) was set at 9.00 µm threshold while the thinnest dendrite diameter (i.e., Seed Point) was set at 1.00 µm threshold. After manually tracing the dendrites, the spines along the dendrites were assessed using the automatic “spine detection” function in Imaris. The thinnest spine diameter was set at 0.80 µm threshold while the maximum spine length was set at 5.00 µm. The spine density (number of spines/dendrite length) was then calculated for each neuron. All image acquisition and quantification were performed in a blind manner. For in vitro quantification of dendrite degeneration, Neurolucida (MBF Biosciences) in the manual mode was used to measure the total dendritic length, numbers of dendrites, and dendritic complexity for each neuron.

[2] = Adverse event observation in CD-1 PK study; format: in vivo; conditions: 10 mg/kg IP, CD-1 mice
Method: The dose volume was 10 mL/kg.

[3] = test system: kinome; broad panel of proteases, receptors, and bromodomains; conditions: cited from earlier work
[4] = test system: 14 DIV hippocampal neurons; assay: oTau-induced dendrite degeneration (MAP2 dendrite length, number) in cultured hippocampal neurons; format: cell-based, mouse; conditions: oTau 50 nM + inhibitor 24 h vs oTau alone, NVS-PAK1-1 10 nM, AZ 1 nM, G 5 nM
Method: as §1, §2, §3, §4

CC(C)NC(=O)N1CC[C@H](NC2=Nc3cc(F)ccc3N(CC(F)F)c3ccc(Cl)cc32)C1 [NVS‐PAK1‐1, (S)‐3‐([2‐chloro‐5‐(2,2‐difluoroethyl)‐8‐fluoro‐5H‐dibenzo[b,e][1,4]diazepin‐11‐yl]amino)‐N‐isopropylpyrrolidine‐1‐carboxamide]
dendritic complexity ([1]; oAβ 1 µM + 10 nM, 24 h, vs oAβ alone): preservation of complexity | dendrite number per neuron ([1]; oAβ 1 µM + inhibitor 24 h vs oAβ alone, NVS-PAK1-1 10 nM, AZ 1 nM, G 5 nM): significantly increased dendrite number per neuron | total dendrite length per neuron ([1]; oAβ 1 µM + inhibitor 24 h vs oAβ alone, NVS-PAK1-1 10 nM, PAK1-C 10 nM, AZ 1 nM, G 5 nM): preserved dendrite length | adverse events [2]: No adverse events were observed | cross-reactivity with a broad panel of proteases, receptors, and bromodomains [3]: no significant cross‐reactivity | dendrite number per neuron [4]: significantly increased dendrite number per neuron | total dendrite length per neuron ([4]; PAK1-C 10 nM): preserved dendrite length
